Consider 20 compounds from patent US20120045393A1 (priority 2009, published 2012).

For this assay, the system named is LHRH binding sites on human ovarian cancer cells (EFO-27). The following applies: for binding potency, times lower than BRU-2813: ratio of EC50 to BRU-2813 (EC50=0.33 μM).
Where [1] appears, read: Table 5: modifications of amino acids at positions 1 and 2, in vitro binding on EFO-27 cells.
Setting [2] is: EFO-27 cells, competition with [125I-Tyr8]BRU-2477, 90 min.

SMILES strings stand for the structures. Where two headings read alike, the source gives them in different places. Non-standard residues stand in square brackets, D forms with d. Residues, ends and D or L forms follow the SMILES beside them. *: point of attachment. DOTA = O=C(O)CN1CCN(CC(=O)O)CCN(CC(=O)*)CCN(CC(=O)O)CC1; Bpa = N[C@@H](Cc1ccc(C(=O)c2ccccc2)cc1)C(=O)O; Ala(4-thiazolyl) = N[C@@H](Cc1cscn1)C(=O)O; d2Nal = N[C@H](Cc1ccc2ccccc2c1)C(=O)O; azaGly = NNC(=O)O; Sar = CNCC(=O)O
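Note: Cell-associated radioactivity on confluent EFO-27 monolayers in 96-well plates, measured by microplate scintillation counting.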

Procedure: The EFO27 human ovarian cancer cells were obtained from the American Type Culture Collection and cultured in growth medium, RPMI 1640 (Cellgro) supplemented with 10% fetal bovine serum. The cultures were maintained in a humidified atmosphere containing 5% CO2/95% air at 37° C. and passaged and harvested routinely using 0.05% trypsin/EDTA.
LHRH compounds were screened in a standard cell-based plate assay for their ability to compete with the radio-iodinated LHRH, [Darg^6, ^125I-Tyr^8,azaGly^10-LHRH-II] ([^125I-Tyr^8]BRU-2477) for binding to cancer cells. […] Briefly, EFO-27 cells were cultured and seeded in 96-well clear flat bottom plates at 30,000/well density in growth medium and were used for the assay at 100% confluence the following day, after a wash with chilled phosphate-buffered saline pH 7.4 (PBS). The binding assay was carried out by incubating cells with [^125I-Tyr^8]BRU-2477 in the absence or presence of varying concentrations of test compounds for 90 min at −10° C. All compounds were diluted in phosphate buffered saline (VWR CAT#45000-434) supplemented with 20 mM HEPES, 0.1% BSA, 0.5 mM PMSF (AEBSF), bacitracin (100 mg/L), pH 7.4. At the end of incubation, cells were washed with PBS and the radioactivity associated with each well was read using a Microplate Scintillation counter. [^125I-Tyr^8]BRU-2477 was custom made by GE Healthcare (Woburn, Mass.) and supplied as freeze-dried powder with a radiochemical purity (RCP) of >95% and specific activity of 2000 Ci/mmol.

The EC50 is the concentration needed to bring the measured effect to its halfway point. High values mean a less potent agent, low ones a more potent agent. `CN(CC(=O)N[C@@H](Cc1c[nH]cn1)C(=O)N[C@@H](Cc1c[nH]c2ccccc12)C(=O)N[C@@H](CO)C(=O)N[C@@H](Cc1c[nH]cn1)C(=O)N[C@H](CCCNC(=N)N)C(=O)N[C@@H](Cc1c[nH]c2ccccc12)C(=O)N[C@@H](Cc1cscn1)C(=O)N1CCC[C@H]1C(=O)NNC(N)=O)C(=O)CN1CCN(CC(=O)O)CCN(CC(=O)O)CCN(CC(=O)O)CC1` [BRU-2742] had an EC50 of 10000 nM. `CNCC(=O)N[C@@H](CCCNC(=N)N)C(=O)N[C@@H](Cc1c[nH]c2ccccc12)C(=O)N[C@@H](CO)C(=O)N[C@@H](Cc1c[nH]cn1)C(=O)N[C@H](CCCNC(=N)N)C(=O)N[C@@H](Cc1c[nH]c2ccccc12)C(=O)N[C@@H](Cc1ccc(C(=O)c2ccccc2)cc1)C(=O)N1CCC[C@H]1C(=O)NCCOCCOCCNC(=O)CN1CCN(CC(=O)O)CCN(CC(=O)O)CCN(CC(=O)O)CC1` [BRU-3043] displayed an EC50 of 230 to 500 nM. Under setting [1], `CN(CC(=O)N[C@@H](Cc1cncn1C)C(=O)N[C@@H](Cc1c[nH]c2ccccc12)C(=O)N[C@@H](CO)C(=O)N[C@@H](Cc1c[nH]cn1)C(=O)N[C@H](CCCNC(=N)N)C(=O)N[C@@H](Cc1c[nH]c2ccccc12)C(=O)N[C@@H](Cc1ccc(C(=O)c2ccccc2)cc1)C(=O)N1CCC[C@H]1C(=O)NNC(N)=O)C(=O)CN1CCN(CC(=O)O)CCN(CC(=O)O)CCN(CC(=O)O)CC1` [BRU-2759] came in with an EC50 of 10000 nM. In turn, `N=C(N)NCCC[C@H](NC(=O)CNC(=O)[C@@H]1CCCN1C(=O)[C@H](Cc1ccc(C(=O)c2ccccc2)cc1)NC(=O)[C@H](Cc1c[nH]c2ccccc12)NC(=O)[C@@H](CCCNC(=N)N)NC(=O)[C@H](Cc1c[nH]cn1)NC(=O)[C@H](CO)NC(=O)[C@H](Cc1c[nH]c2ccccc12)NC(=O)[C@H](CCCNC(=N)N)NC(=O)[C@@H](Cc1ccc2ccccc2c1)NC(=O)CN1CCN(CC(=O)O)CCN(CC(=O)O)CCN(CC(=O)O)CC1)C(N)=O` [compound 2969] ({DOTA}-[d2Nal]RWSH[dR]W[Bpa]PGR-NH2) came in with an EC50 under setting [2] of 240 nM. The same measure, in the same setting: for `N=C(N)NCCC[C@H](NC(=O)[C@H]1Cc2c([nH]c3ccccc23)CN1C(=O)CNC(=O)CN1CCN(CC(=O)O)CCN(CC(=O)O)CCN(CC(=O)O)CC1)C(=O)N[C@@H](Cc1c[nH]c2ccccc12)C(=O)N[C@@H](CO)C(=O)N[C@@H](Cc1c[nH]cn1)C(=O)N[C@H](CCCNC(=N)N)C(=O)N[C@@H](Cc1c[nH]c2ccccc12)C(=O)N[C@@H](Cc1ccc(C(=O)c2ccccc2)cc1)C(=O)N1CCC[C@H]1C(=O)NNC(N)=O` [BRU-3068] the value was 240 nM. `CNCC(=O)N[C@@H](CCCNC(=N)N)C(=O)N[C@@H](Cc1c[nH]c2ccccc12)C(=O)N[C@@H](CO)C(=O)N[C@@H](Cc1c[nH]cn1)C(=O)N[C@H](CCCNC(=N)N)C(=O)N[C@@H](Cc1c[nH]c2ccccc12)C(=O)N[C@@H](Cc1ccc(C(=O)c2ccccc2)cc1)C(=O)N1CCC[C@H]1C(=O)NCCOCCNC(=O)CN1CCN(CC(=O)O)CCN(CC(=O)O)CCN(CC(=O)O)CC1` [BRU-3039]: the EC50 fell in the range of 230 to 500 nM. With `N=C(N)NCCC[C@@H](NC(=O)[C@H](Cc1c[nH]cn1)NC(=O)[C@H](CO)NC(=O)[C@H](Cc1c[nH]c2ccccc12)NC(=O)[C@H](Cc1c[nH]cn1)NC(=O)[C@H](Cc1ccccc1)NC(=O)CN1CCN(CC(=O)O)CCN(CC(=O)O)CCN(CC(=O)O)CC1)C(=O)N[C@@H](Cc1c[nH]c2ccccc12)C(=O)N[C@@H](Cc1ccc(C(=O)c2ccccc2)cc1)C(=O)N1CCC[C@H]1C(=O)NNC(N)=O` [BRU-2735], under setting [1], the concentration giving a half-maximal response (EC50) amounted to 1140 nM. `N=C(N)NCCC[C@H](NC(=O)[C@@H](Cc1ccc2ccccc2c1)NC(=O)CN1CCN(CC(=O)O)CCN(CC(=O)O)CCN(CC(=O)O)CC1)C(=O)N[C@@H](Cc1c[nH]c2ccccc12)C(=O)N[C@@H](CO)C(=O)N[C@@H](Cc1c[nH]cn1)C(=O)N[C@H](CCCNC(=N)N)C(=O)N[C@@H](Cc1c[nH]c2ccccc12)C(=O)N[C@@H](Cc1ccc(C(=O)c2ccccc2)cc1)C(=O)N1CCC[C@H]1C(=O)NCC(=O)NCCCCO` [compound 2978] came in with an EC50 under setting [2] of 2000 nM. Regarding `N=C(N)NCCC[C@H](NC(=O)[C@@H](Cc1ccc2ccccc2c1)NC(=O)CN1CCN(CC(=O)O)CCN(CC(=O)O)CCN(CC(=O)O)CC1)C(=O)N[C@@H](Cc1c[nH]c2ccccc12)C(=O)N[C@@H](CC(=O)O)C(=O)N[C@@H](Cc1c[nH]cn1)C(=O)N[C@H](CCCNC(=N)N)C(=O)N[C@@H](Cc1c[nH]c2ccccc12)C(=O)N[C@@H](Cc1ccc(C(=O)c2ccccc2)cc1)C(=O)N1CCC[C@H]1C(=O)NNC(N)=O` [BRU-2954] ({DOTA}-[d2Nal]RWDH[dR]W[Bpa]P[azaGly]-NH2), the EC50 came to 4200 nM and the “binding potency, times lower than BRU-2813” value is on record as approximately 13. For `N=C(N)NCCC[C@H](NC(=O)[C@@H](Cc1ccc2ccccc2c1)NC(=O)CN1CCN(CC(=O)O)CCN(CC(=O)O)CCN(CC(=O)O)CC1)C(=O)N[C@@H](Cc1c[nH]c2ccccc12)C(=O)N[C@@H](CO)C(=O)N[C@@H](Cc1c[nH]cn1)C(=O)N[C@H](CCCNC(=N)N)C(=O)N[C@@H](Cc1c[nH]c2ccccc12)C(=O)N[C@@H](Cc1ccc(C(=O)c2ccccc2)cc1)C(=O)N1C[C@@H](N)C[C@H]1C(=O)NNC(N)=O` [compound 3062], under setting [2], the concentration for a half-maximal effect (EC50) was determined as 320 nM. On to `N=C(N)NCCC[C@H](NC(=O)[C@H](N)Cc1ccc2ccccc2c1)C(=O)N[C@@H](Cc1c[nH]c2ccccc12)C(=O)N[C@@H](CO)C(=O)N[C@@H](Cc1c[nH]cn1)C(=O)N[C@H](CCCNC(=N)N)C(=O)N[C@@H](Cc1c[nH]c2ccccc12)C(=O)N[C@@H](Cc1ccc(C(=O)c2ccccc2)cc1)C(=O)N1CCC[C@H]1C(=O)NCC(=O)NCCCCNC(=O)CN1CCN(CC(=O)O)CCN(CC(=O)O)CCN(CC(=O)O)CC1` [compound 2990], for which it took 30200 ± 8280 nM to reach a half-maximal effect (EC50). In the case of `N=C(N)NCCC[C@H](NC(=O)[C@@H](Cc1ccc2ccccc2c1)NC(=O)CN1CCN(CC(=O)O)CCN(CC(=O)O)CCN(CC(=O)O)CC1)C(=O)N[C@@H](Cc1c[nH]c2ccccc12)C(=O)N[C@@H](CO)C(=O)N[C@@H](Cc1c[nH]cn1)C(=O)N[C@H](CCCNC(=N)N)C(=O)N[C@@H](Cc1c[nH]c2ccccc12)C(=O)N[C@@H](Cc1ccc(C(=O)c2ccccc2)cc1)C(=O)N1CCC[C@H]1C(=O)NCC(=O)N[C@@H](Cc1ccccc1)C(N)=O` [compound 2980] ({DOTA}-[d2Nal]RWSH[dR]W[Bpa]PGF-NH2), the EC50 under setting [2] was found to be 970 nM. On to `CNCC(=O)N[C@@H](CCCNC(=N)N)C(=O)N[C@@H](Cc1c[nH]c2ccccc12)C(=O)N[C@@H](CO)C(=O)N[C@@H](Cc1c[nH]cn1)C(=O)N[C@H](CCCNC(=N)N)C(=O)N[C@@H](Cc1c[nH]c2ccccc12)C(=O)N[C@@H](Cc1ccc(C(=O)c2ccccc2)cc1)C(=O)N1CCC[C@H]1C(=O)NCCCCNC(=O)CN1CCN(CC(=O)O)CCN(CC(=O)O)CCN(CC(=O)O)CC1` [compound 3041], for which the EC50 is 360 ± 20 nM. As for `N=C(N)NCCC[C@H](NC(=O)[C@@H](Cc1ccc2ccccc2c1)NC(=O)CN1CCN(CC(=O)O)CCN(CC(=O)O)CCN(CC(=O)O)CC1)C(=O)N[C@@H](Cc1c[nH]c2ccccc12)C(=O)N[C@@H](CO)C(=O)N[C@@H](Cc1c[nH]cn1)C(=O)N[C@H](CCCNC(=N)N)C(=O)N[C@@H](Cc1c[nH]c2ccccc12)C(=O)N[C@@H](Cc1ccc(C(=O)c2ccccc2)cc1)C(=O)N1C[C@H](c2ccccc2)C[C@H]1C(=O)NNC(N)=O` [BRU-2953], the “binding potency, times lower than BRU-2813” value turned out to be 2. Compound `N=C(N)NCCC[C@@H](NC(=O)[C@H](Cc1c[nH]cn1)NC(=O)[C@H](CO)NC(=O)[C@H](Cc1c[nH]c2ccccc12)NC(=O)[C@H](Cc1c[nH]cn1)NC(=O)[C@@H]1CCCN1C(=O)CNC(=O)CN1CCN(CC(=O)O)CCN(CC(=O)O)CCN(CC(=O)O)CC1)C(=O)N[C@@H](Cc1c[nH]c2ccccc12)C(=O)N[C@@H](Cc1ccc(C(=O)c2ccccc2)cc1)C(=O)N1CCC[C@H]1C(=O)NNC(N)=O` [BRU-2667] ({DOTA}-GPHWSH[dR]W[Bpa]P[azaGly]-NH2) showed an EC50 under setting [1] of 7290 nM. Turning to `CN(CC(=O)N[C@@H](Cc1c[nH]c2ccccc12)C(=O)N[C@@H](CO)C(=O)N[C@@H](Cc1cscn1)C(=O)N[C@H](CCCNC(=N)N)C(=O)N[C@@H](Cc1c[nH]c2ccccc12)C(=O)N[C@@H](Cc1ccc(C(=O)c2ccccc2)cc1)C(=O)N1CCC[C@H]1C(=O)NNC(N)=O)C(=O)CN1CCN(CC(=O)O)CCN(CC(=O)O)CCN(CC(=O)O)CC1` [compound 2740] ({DOTA}-[Sar]WS[Ala(4-thiazolyl)][dR]W[Bpa]P[azaGly]-NH2), the EC50 amounted to 5530 nM. Regarding `N=C(N)NCCC[C@H](NC(=O)[C@@H](Cc1ccc2ccccc2c1)NC(=O)CN1CCN(CC(=O)O)CCN(CC(=O)O)CCN(CC(=O)O)CC1)C(=O)N[C@@H](Cc1c[nH]c2ccccc12)C(=O)N[C@@H](CO)C(=O)N[C@@H](Cc1c[nH]cn1)C(=O)N[C@H](CCCNC(=N)N)C(=O)N[C@@H](Cc1c[nH]c2ccccc12)C(=O)N[C@@H](Cc1ccc(C(=O)c2ccccc2)cc1)C(=O)N1CCC[C@H]1C(=O)NCC(N)=O` [compound 3005], a half-maximal response under setting [2] (EC50) required 660 nM.

The compound `CC(=O)N[C@@H](Cc1ccc(CNC(=O)CN2CCN(CC(=O)O)CCN(CC(=O)O)CCN(CC(=O)O)CC2)cc1)C(=O)N[C@@H](Cc1c[nH]cn1)C(=O)N[C@@H](Cc1c[nH]c2ccccc12)C(=O)N[C@@H](CO)C(=O)N[C@@H](Cc1c[nH]cn1)C(=O)N[C@H](CCCNC(=N)N)C(=O)N[C@@H](Cc1c[nH]c2ccccc12)C(=O)N[C@@H](Cc1ccc(C(=O)c2ccccc2)cc1)C(=O)N1CCC[C@H]1C(=O)NNC(N)=O` [BRU-2881] had an EC50 of 1380 nM.

Regarding `CN(C(=O)CN1CCN(CC(=O)O)CCN(CC(=O)O)CCN(CC(=O)O)CC1)[C@H](Cc1ccc2ccccc2c1)C(=O)N[C@@H](Cc1c[nH]cn1)C(=O)N[C@@H](Cc1c[nH]c2ccccc12)C(=O)N[C@@H](CO)C(=O)N[C@@H](Cc1c[nH]cn1)C(=O)N[C@H](CCCNC(=N)N)C(=O)N[C@@H](Cc1c[nH]c2ccccc12)C(=O)N[C@@H](Cc1ccc(C(=O)c2ccccc2)cc1)C(=O)N1CCC[C@H]1C(=O)NNC(N)=O` [BRU-3003], the midpoint of the response, the EC50, lay at 760 nM. `CCN(CC(=O)N[C@@H](Cc1c[nH]cn1)C(=O)N[C@@H](Cc1c[nH]c2ccccc12)C(=O)N[C@@H](CO)C(=O)N[C@@H](Cc1c[nH]cn1)C(=O)N[C@H](CCCNC(=N)N)C(=O)N[C@@H](Cc1c[nH]c2ccccc12)C(=O)N[C@@H](Cc1ccc(C(=O)c2ccccc2)cc1)C(=O)N1CCC[C@H]1C(=O)NNC(N)=O)C(=O)CN1CCN(CC(=O)O)CCN(CC(=O)O)CCN(CC(=O)O)CC1` [BRU-2788] yielded an EC50 under setting [1] of 210 nM.
